# From patent US9708314B2, “Heterocyclic amide compound” (NISSAN CHEMICAL INDUSTRIES, LTD., priority 2013, dated 2017)
# Legend:
# Assay type in all cases: in vivo
# [1] = system: transplanted Oryza sativa; assay: Test Example 1: effect on crop, application before weed generation in submerged conditions; details: Seventeenth Table
# Summary of the method: (§1)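 Rating, on a six-step scale from almost no effect (0) to almost completely withered (5), was made three weeks after pre-emergence treatment. Treatment was surface application to flooded pots at g/ha rates, with plants kept at 25° C. to 30° C.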
# [2] = system: Echinochloa oryzacola Vasing.; assay: Test Example 1: herbicidal activity, application before weed generation in submerged conditions; details: Seventeenth Table
# Summary of the method: as §1
# Scirpus juncoides = assay: as above; details: Seventeenth Table
# Summary of the method: as §1
# Monochoria vaginalis = assay: as above; details: Seventeenth Table
# Summary of the method: as §1
# Setaria viridis = assay: Test Example 4: herbicidal effect by application to foliage (diluvial soil, plastic box); details: for G: Application herbicide amount 320 g/ha
# Summary of the method: (§2)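 Emulsion-formulated compound, diluted to a predetermined g/ha dose, applied by small sprayer to leaves and stems of 14-day-old seedlings grown in sterilized diluvial soil. Effect rated on 0–5 herbicidal-ratio scale three weeks on.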
# [3] = system: Echinochloa crus-galli var. crus-galli; assay: as above; details: for H: Application herbicide amount 320 g/ha
# Summary of the method: as §2
# Alopecurus myosuroides = assay: as above; details: for J: Application herbicide amount 320 g/ha
# Summary of the method: as §2
# Galium spurium = assay: as above; details: for Q: Application herbicide amount 320 g/ha
# Summary of the method: as §2
# Abutilon theophrasti = assay: as above; details: for M: Application herbicide amount 320 g/ha
# Summary of the method: as §2
# Veronica persica = assay: as above; details: for R: Application herbicide amount 320 g/ha
# Summary of the method: as §2
# Apera spica-venti. = assay: as above; details: for L: Application herbicide amount 320 g/ha
# Summary of the method: as §2
# Chenopodium album = assay: as above; details: for O: Application herbicide amount 320 g/ha
# Summary of the method: as §2
# Digitaria ciliaris = assay: as above; details: for F: Application herbicide amount 320 g/ha
# Summary of the method: as §2
# Lolium multiflorum Lam. = assay: as above; details: for K: Application herbicide amount 320 g/ha
# Summary of the method: as §2
# Avena fatua = assay: as above; details: for I: Application herbicide amount 320 g/ha
# Summary of the method: as §2
# [4] = Application herbicide amount 320 g/ha
# [5] = Application herbicide amount 288 g/ha
# [6] = Application herbicide amount 288 g/ha, foliage application
compound,measurement,setting,value
Cc1nnc(NC(=O)c2ccc(C(F)(F)F)n3c(SCC(C)C)nnc23)o1 [1-093],a: transplanted Oryza sativa (effect on crop grade),[1]; [4],0 (Herbicidal ratio of 5% or less (almost no effect))
same,A: Echinochloa oryzicola Vasing. (herbicidal effect grade),[2]; [4],5 (Herbicidal ratio of 90% or more (almost completely withered))
same,B: Scirpus juncoides (herbicidal effect grade),Scirpus juncoides; [4],4 (Herbicidal ratio of 70% or more and less than 90%)
same,C: Monochoria vaginalis (herbicidal effect grade),Monochoria vaginalis; [4],3 (Herbicidal ratio of 40% or more and less than 70%)
same,G,Setaria viridis,3 (Herbicidal ratio of 40% or more and less than 70%)
same,H,[3],5 (Herbicidal ratio of 90% or more (almost completely withered))
same,J,Alopecurus myosuroides,0 (Herbicidal ratio of 5% or less (almost no effect))
same,Q,Galium spurium,1 (Herbicidal ratio of 5% or more and less than 20%)
same,M,Abutilon theophrasti,4 (Herbicidal ratio of 70% or more and less than 90%)
same,R,Veronica persica,4 (Herbicidal ratio of 70% or more and less than 90%)
same,L,Apera spica-venti.,1 (Herbicidal ratio of 5% or more and less than 20%)
same,O,Chenopodium album,5 (Herbicidal ratio of 90% or more (almost completely withered))
same,F,Digitaria ciliaris,5 (Herbicidal ratio of 90% or more (almost completely withered))
same,K,Lolium multiflorum Lam.,1 (Herbicidal ratio of 5% or more and less than 20%)
same,I,Avena fatua,1 (Herbicidal ratio of 5% or more and less than 20%)
CCC(C)Sc1nnc2c(C(=O)Nc3nnc(C)o3)ccc(C(F)(F)F)n12 (stereo not drawn) [1-094],a: transplanted Oryza sativa (effect on crop grade),[1]; [4],0 (Herbicidal ratio of 5% or less (almost no effect))
same,A: Echinochloa oryzicola Vasing. (herbicidal effect grade),[2]; [4],5 (Herbicidal ratio of 90% or more (almost completely withered))
same,B: Scirpus juncoides (herbicidal effect grade),Scirpus juncoides; [4],5 (Herbicidal ratio of 90% or more (almost completely withered))
same,C: Monochoria vaginalis (herbicidal effect grade),Monochoria vaginalis; [4],3 (Herbicidal ratio of 40% or more and less than 70%)
same,G,Setaria viridis,4 (Herbicidal ratio of 70% or more and less than 90%)
same,H,[3],5 (Herbicidal ratio of 90% or more (almost completely withered))
same,J,Alopecurus myosuroides,1 (Herbicidal ratio of 5% or more and less than 20%)
same,Q,Galium spurium,0 (Herbicidal ratio of 5% or less (almost no effect))
same,M,Abutilon theophrasti,4 (Herbicidal ratio of 70% or more and less than 90%)
same,R,Veronica persica,4 (Herbicidal ratio of 70% or more and less than 90%)
same,L,Apera spica-venti.,1 (Herbicidal ratio of 5% or more and less than 20%)
same,O,Chenopodium album,5 (Herbicidal ratio of 90% or more (almost completely withered))
same,F,Digitaria ciliaris,5 (Herbicidal ratio of 90% or more (almost completely withered))
same,K,Lolium multiflorum Lam.,1 (Herbicidal ratio of 5% or more and less than 20%)
same,I,Avena fatua,2 (Herbicidal ratio of 20% or more and less than 40%)
Cc1nnc(NC(=O)c2ccc(C(F)(F)F)n3c(SC(C)(C)C)nnc23)o1 [1-095],a: transplanted Oryza sativa (effect on crop grade),[1]; [4],1 (Herbicidal ratio of 5% or more and less than 20%)
same,A: Echinochloa oryzicola Vasing. (herbicidal effect grade),[2]; [4],5 (Herbicidal ratio of 90% or more (almost completely withered))
same,B: Scirpus juncoides (herbicidal effect grade),Scirpus juncoides; [4],5 (Herbicidal ratio of 90% or more (almost completely withered))
same,C: Monochoria vaginalis (herbicidal effect grade),Monochoria vaginalis; [4],5 (Herbicidal ratio of 90% or more (almost completely withered))
same,G,Setaria viridis,3 (Herbicidal ratio of 40% or more and less than 70%)
same,H,[3],5 (Herbicidal ratio of 90% or more (almost completely withered))
same,J,Alopecurus myosuroides,1 (Herbicidal ratio of 5% or more and less than 20%)
same,Q,Galium spurium,3 (Herbicidal ratio of 40% or more and less than 70%)
same,M,Abutilon theophrasti,4 (Herbicidal ratio of 70% or more and less than 90%)
same,R,Veronica persica,5 (Herbicidal ratio of 90% or more (almost completely withered))
same,L,Apera spica-venti.,1 (Herbicidal ratio of 5% or more and less than 20%)
same,O,Chenopodium album,5 (Herbicidal ratio of 90% or more (almost completely withered))
same,F,Digitaria ciliaris,5 (Herbicidal ratio of 90% or more (almost completely withered))
same,K,Lolium multiflorum Lam.,2 (Herbicidal ratio of 20% or more and less than 40%)
same,I,Avena fatua,1 (Herbicidal ratio of 5% or more and less than 20%)
Cc1nnc(NC(=O)c2ccc(C(F)(F)F)n3c(N4CCOCC4)nnc23)o1 [1-096],a: transplanted Oryza sativa (effect on crop grade),[1]; [4],3 (Herbicidal ratio of 40% or more and less than 70%)
same,A: Echinochloa oryzicola Vasing. (herbicidal effect grade),[2]; [4],5 (Herbicidal ratio of 90% or more (almost completely withered))
same,B: Scirpus juncoides (herbicidal effect grade),Scirpus juncoides; [4],4 (Herbicidal ratio of 70% or more and less than 90%)
same,C: Monochoria vaginalis (herbicidal effect grade),Monochoria vaginalis; [4],4 (Herbicidal ratio of 70% or more and less than 90%)
same,G,Setaria viridis,5 (Herbicidal ratio of 90% or more (almost completely withered))
same,H,[3],5 (Herbicidal ratio of 90% or more (almost completely withered))
same,J,Alopecurus myosuroides,1 (Herbicidal ratio of 5% or more and less than 20%)
same,Q,Galium spurium,4 (Herbicidal ratio of 70% or more and less than 90%)
same,M,Abutilon theophrasti,4 (Herbicidal ratio of 70% or more and less than 90%)
same,R,Veronica persica,5 (Herbicidal ratio of 90% or more (almost completely withered))
same,L,Apera spica-venti.,3 (Herbicidal ratio of 40% or more and less than 70%)
same,O,Chenopodium album,5 (Herbicidal ratio of 90% or more (almost completely withered))
same,F,Digitaria ciliaris,5 (Herbicidal ratio of 90% or more (almost completely withered))
same,K,Lolium multiflorum Lam.,2 (Herbicidal ratio of 20% or more and less than 40%)
same,I,Avena fatua,2 (Herbicidal ratio of 20% or more and less than 40%)
CC(C)c1nnc2c(C(=O)Nc3nnc(C(F)(F)F)o3)ccc(C(F)(F)F)n12 [1-100],a: transplanted Oryza sativa (effect on crop grade),[1]; [4],0 (Herbicidal ratio of 5% or less (almost no effect))
same,A: Echinochloa oryzicola Vasing. (herbicidal effect grade),[2]; [4],4 (Herbicidal ratio of 70% or more and less than 90%)
same,B: Scirpus juncoides (herbicidal effect grade),Scirpus juncoides; [4],3 (Herbicidal ratio of 40% or more and less than 70%)
same,C: Monochoria vaginalis (herbicidal effect grade),Monochoria vaginalis; [4],3 (Herbicidal ratio of 40% or more and less than 70%)
same,G,Setaria viridis,1 (Herbicidal ratio of 5% or more and less than 20%)
same,H,[3],4 (Herbicidal ratio of 70% or more and less than 90%)
same,J,Alopecurus myosuroides,0 (Herbicidal ratio of 5% or less (almost no effect))
same,Q,Galium spurium,0 (Herbicidal ratio of 5% or less (almost no effect))
same,M,Abutilon theophrasti,3 (Herbicidal ratio of 40% or more and less than 70%)
same,R,Veronica persica,1 (Herbicidal ratio of 5% or more and less than 20%)
same,L,Apera spica-venti.,0 (Herbicidal ratio of 5% or less (almost no effect))
same,O,Chenopodium album,5 (Herbicidal ratio of 90% or more (almost completely withered))
same,F,Digitaria ciliaris,3 (Herbicidal ratio of 40% or more and less than 70%)
same,K,Lolium multiflorum Lam.,0 (Herbicidal ratio of 5% or less (almost no effect))
same,I,Avena fatua,1 (Herbicidal ratio of 5% or more and less than 20%)
COc1cccc(Nc2nnc3c(C(=O)Nc4nnc(C)o4)ccc(C(F)(F)F)n23)n1 [1-102],a: transplanted Oryza sativa (effect on crop grade),[1]; [4],2 (Herbicidal ratio of 20% or more and less than 40%)
same,A: Echinochloa oryzicola Vasing. (herbicidal effect grade),[2]; [4],3 (Herbicidal ratio of 40% or more and less than 70%)
same,B: Scirpus juncoides (herbicidal effect grade),Scirpus juncoides; [4],2 (Herbicidal ratio of 20% or more and less than 40%)
same,C: Monochoria vaginalis (herbicidal effect grade),Monochoria vaginalis; [4],2 (Herbicidal ratio of 20% or more and less than 40%)
same,G,Setaria viridis,3 (Herbicidal ratio of 40% or more and less than 70%)
same,H,[3],4 (Herbicidal ratio of 70% or more and less than 90%)
same,J,Alopecurus myosuroides,0 (Herbicidal ratio of 5% or less (almost no effect))
same,Q,Galium spurium,2 (Herbicidal ratio of 20% or more and less than 40%)
same,M,Abutilon theophrasti,3 (Herbicidal ratio of 40% or more and less than 70%)
same,R,Veronica persica,4 (Herbicidal ratio of 70% or more and less than 90%)
same,L,Apera spica-venti.,0 (Herbicidal ratio of 5% or less (almost no effect))
same,O,Chenopodium album,5 (Herbicidal ratio of 90% or more (almost completely withered))
same,F,Digitaria ciliaris,3 (Herbicidal ratio of 40% or more and less than 70%)
same,K,Lolium multiflorum Lam.,0 (Herbicidal ratio of 5% or less (almost no effect))
same,I,Avena fatua,0 (Herbicidal ratio of 5% or less (almost no effect))
C=CCSc1nnc2c(C(=O)Nc3nnco3)ccc(C(F)(F)F)n12 [1-128],a: transplanted Oryza sativa (effect on crop grade),[1]; [5],0 (Herbicidal ratio of 5% or less (almost no effect))
same,A: Echinochloa oryzicola Vasing. (herbicidal effect grade),[2]; [5],5 (Herbicidal ratio of 90% or more (almost completely withered))
same,B: Scirpus juncoides (herbicidal effect grade),Scirpus juncoides; [5],4 (Herbicidal ratio of 70% or more and less than 90%)
same,C: Monochoria vaginalis (herbicidal effect grade),Monochoria vaginalis; [5],2 (Herbicidal ratio of 20% or more and less than 40%)
same,G (Setaria viridis) herbicidal effect grade,Setaria viridis; [6],2 (Herbicidal ratio of 20% or more and less than 40%)
same,H (Echinochloa crus-galli var. crus-galli) herbicidal effect grade,[3]; [6],5 (Herbicidal ratio of 90% or more (almost completely withered))
same,J (Alopecurus myosuroides) herbicidal effect grade,Alopecurus myosuroides; [6],1 (Herbicidal ratio of 5% or more and less than 20%)
same,Q (Galium spurium) herbicidal effect grade,Galium spurium; [6],1 (Herbicidal ratio of 5% or more and less than 20%)
same,M (Abutilon theophrasti) herbicidal effect grade,Abutilon theophrasti; [6],3 (Herbicidal ratio of 40% or more and less than 70%)
same,R (Veronica persica) herbicidal effect grade,Veronica persica; [6],5 (Herbicidal ratio of 90% or more (almost completely withered))
same,L (Apera spica-venti.) herbicidal effect grade,Apera spica-venti.; [6],1 (Herbicidal ratio of 5% or more and less than 20%)
same,O (Chenopodium album) herbicidal effect grade,Chenopodium album; [6],5 (Herbicidal ratio of 90% or more (almost completely withered))
same,F (Digitaria ciliaris) herbicidal effect grade,Digitaria ciliaris; [6],5 (Herbicidal ratio of 90% or more (almost completely withered))
same,K (Lolium multiflorum Lam.) herbicidal effect grade,Lolium multiflorum Lam.; [6],1 (Herbicidal ratio of 5% or more and less than 20%)
same,I (Avena fatua) herbicidal effect grade,Avena fatua; [6],0 (Herbicidal ratio of 5% or less (almost no effect))
